Assay results taken from patent US20150030683A1, “FORMULATIONS AND METHODS FOR THE TREATMENT OR PROPHYLAXIS OF PRE-MCI AND/OR PRE-ALZHEIMER'S CONDITIONS” (BUCK INSTITUTE FOR RESEARCH ON AGING, priority 2012, published 2015).

Legend:
[1] = biological target: T1, MBP-eAPP230-624 (Homo sapiens, UniProt P05067); assay: Small-angle X-ray scattering of MBP-eAPP230-624 incubated with the agent; type: binding; conditions: for MWcalc/MWseq / Rg (radius of gyration) / Dmax (maximum dimension): MBP-eAPP230-624 incubated with 50 μM agent, 4° C., 1 hour; for MWcalc/MWseq: ± 0.2; for Rg (radius of gyration): ± 2; for Dmax (maximum dimension): ± 10; for Binding to APP (MBP-eAPP230-624) and effect on conformation/dimerization: small-angle X-ray scattering, 50 μM agent
T1 construct: purified MBP-eAPP230-624 were incubated with 50 μM Disulfiram or 50 μM Sulfiram
Experimental: To 100 μg of purified MBP-eAPP230-624 were incubated with 50 μM Disulfiram or 50 μM Sulfiram in 20 mM sodium phosphate pH 7.4, 137 mM sodium chloride, 0.05% dimethyl sulfoxide at 4° C. for 1 hour. The control sample was incubated in the buffer alone. The samples were then concentrated to approximately 1.5 mg/ml using […] NML concentrators. Small-angle X-ray scattering data were collected using protein concentrations in the range of 0.25-1.5 mg/ml and an X-ray wavelength of 1.11 Å at beam line 12.3.1 (Advanced Light Source). Samples of the filtrate were used for buffer subtraction. Data were integrated with software customized for the beam line and processed with the program PRIMUS (Konarev (2003) Journal of Applied Crystallography 36, 1277-1282). The program GNOM (Svergun (1992) J. Appl. Crystallogr. 25, 495-503) was used to calculate the maximum dimension and the radius of gyration and to estimate the intensity of the scattering at zero angle for higher concentration samples. The molecule weight of each protein was calculated by comparing to the scattering of proteins of known molecule weight.
The apparent drop in molecular weight and maximum dimension (Dmax) are consistent with both sulfiram and disulfiram disrupting the MBP-eAPP230-624 dimers.

[2] = Brain uptake testing (PK): plasma and brain levels by LC/MS/MS; parameters: species or system mice; conditions: mouse, in vivo, sc; for Kp: 10 mg/kg
Experimental: In general, CNS exposure studies consisted of collection of heparinized plasma and brains after treatment with tropisetron, nimetazepam, disulfiram and honokiol following subcutaneous (sc) administration of the molecules at 10 mg/kg. Plasma and brain levels of the agent(s) were determined by quantitative LC/MS/MS methodology, conducted at Integrated Analytical Solutions (on the internet at ianalytical.net). Plasma samples were precipitated with acetonitrile:methanol (1:1) cocktail containing an internal standard. The brain samples were homogenized directly in ethylacetate or extracted from 5M guanidine homogenates using the liquid-liquid method. The resulting supernatant were evaporated to dryness and subjected to the LC/MS/MS analysis. For each agent 3 mice were used for analysis. The brain-to-plasma ratios and brain levels were then be calculated to identify the best candidate(s) for further testing.

[3] = system: sAPPα, Aβ40 and Aβ42 levels; assay: Aβ40/42, sAPPα levels in brain (PD) of Alzheimer's disease transgenic mice (PDAPP model); type: in vivo; conditions: Tg mice; for Aβ40 levels / Aβ42 levels / sAPPα levels in hippocampus (Hip) and entorhinal cortex (ECx): 10 mpk sc, 5 days
Experimental: […]® kits from Perkin Elmer (PE) were used to quantify sAPPα (cat#: AL254C), sAPPβ (cat#: AL232C), Aβ40 (cat #: AL275C), Aβ42 (cat #: AL276C) and Tau (cat#: AL271C) from brain homogenates. The samples are added to an AlphaPlate-384 (cat#: 6005350). Twenty microliters (μl) of acceptor bead antibody mix was added to each five μl cerebrospinal fluid (CSF) sample and allowed to incubate for one hour at room temperature. Next, 25 μl of donor beads were added and allowed to incubate in the dark for 30 minutes at room temperature. Fluorescence was then measured on an EnsPire 96-well plate reader (Perkin-Elmer).
ELISA kits from Invitrogen were also used to quantify Aβ1-40 (KHB3481) and Aβ1-42 (KHB3544) in duplicate from the CSF samples stored at −80° C. For assay, samples were thawed on ice and BSL-2 precautions practiced at all times. For the human Aβ 1-42 ultrasensitive ELISA, samples were diluted 1:2 (50 μl CSF plus 50 μl kit-provided standard diluent buffer). For the human Aβ1-40 ELISA, samples were diluted 1:15 (6.7 μl CSF plus […] of standard diluent buffer). Assays were performed according to manufacturer's instructions. In short, standards and samples were added to a plate pre-coated with a monoclonal capture antibody specific for the amino terminus of Hu Aβ. The samples were co-incubated with a rabbit detection antibody (Ab) specific for the carboxy terminus of the Aβ species being assayed for 3 hr at room temperature (Aβ 1-40) to overnight at 4° (Aβ 1-42) with gentle rocking After washing, bound rabbit Ab was detected using a horseradish peroxidase-labeled anti-rabbit secondary Ab. After washing again, bound HRP-anti rabbit Ab was detected colorimetrically (Spectramax 190, Molecular Devices) by the addition of a substrate solution. 1 mM 4-(2-Aminoethyl)benzenesulfonyl fluoride hydrochloride (AEBSF) protease inhibitor (101500, Calbiochem) was added to standards and samples.
In general, as part of the CNS exposure studies in Alzheimer's disease transgenic (Tg) mice (e.g., the PDAPP mouse model of Alzheimer's disease), tropisetron, nimetazepam, disulfiram and honokiol effects on biomarkers were also measured. In case of tropisetron the testing was done at 0.3 mpk, while in case of the other agent(s) (e.g., nimetazepam, disulfiram and honokiol) it was done at 10 mpk. From the collected brains the hippocampi were dissected. Levels of sAPPα, and Aβ1-40 and Aβ1-42 were measured by […] assay ([…] Perkin-Elmer), and Aβ1-42 (Invitrogen, sensitive ELISA kit) in brain homogenates of Tg mice. All procedures involved have been described (Galavan 2006, Proc Natl Acad Sci USA, 103, 7130-7135). […] The brain-to-plasma ratio (PK) of tropisetron and sAPPalpha/Aβ42 ratios (PD) were then determined.

[4] = system: 7W cells stably transfected with APP; assay: […] assay in 7W APP transfected cells; type: cell-based; conditions: 1 μM agent, 24 h
Experimental: 7W CHO cells were seeded at 50,000 cells/well in a 96 wells plate for 24 h. Then their medium was changed for fresh medium supplemented with 1 μM of the agent(s) of interest (e.g., tropisetron, disulfiram, honokiol, and/or nimetazepam). After 24 h, 20 μl of the medium was added to 2 μl of the complete protease inhibitor with 1 μM EDTA and kept at 4° C. until analysis. 2 μl of that medium was treated with the Perkin Elmer (PE) […]® Aβ kit to determine the amount of Aβ42 secreted by the cells in 24 h using the PE-Enspire reader. Another aliquot of 2 μl of the medium was diluted with 50 μl of the PE […]® buffer and was treated with the PE […]® sAPPαkit to determine the amount of sAPPαsecreted by the cells in 24 h. For the assay, 2 μl of the final mixture was treated with the acceptor bead and the donor antibody followed by addition of the donor beads and the […]® signal was measured using a PE-Enspire reader. For measurement of APPneo, the 50,000 cells were treated after seeding with fresh medium supplemented with or without the agent(s), but without fetal bovine serum (FBS), in order to induce the formation of the APPneo fragment. After 24 h the medium was removed, the cells on the bottom of the wells were washed three times with phosphate buffered saline (PBS) and then lysed with 50 μl of the Perkin Elmer […]® buffer and with 10% of the complete protease inhibitor with EDTA. […]

[5] = Degradation in brain tissue; type: in vitro ADME; conditions: probably reduced at the disulfide bond
[6] = known for the benzodiazepine; cited from earlier work

T1 sequence (P05067 230-624 isoform P05067-4): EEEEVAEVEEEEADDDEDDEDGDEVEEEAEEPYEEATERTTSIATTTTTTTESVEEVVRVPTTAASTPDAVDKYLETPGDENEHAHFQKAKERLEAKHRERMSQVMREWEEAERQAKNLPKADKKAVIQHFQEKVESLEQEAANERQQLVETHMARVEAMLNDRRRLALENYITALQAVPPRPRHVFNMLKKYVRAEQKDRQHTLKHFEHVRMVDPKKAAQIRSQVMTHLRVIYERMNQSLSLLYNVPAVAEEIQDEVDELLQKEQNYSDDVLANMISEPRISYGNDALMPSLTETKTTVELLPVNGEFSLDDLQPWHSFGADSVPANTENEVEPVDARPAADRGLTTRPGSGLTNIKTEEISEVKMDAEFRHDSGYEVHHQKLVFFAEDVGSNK

| Structure (SMILES) | MWcalc/MWseq [1] | Rg (radius of gyration) [1] | Dmax (maximum dimension) [1] | Binding to APP (MBP-eAPP230-624) and effect on conformation/dimerization [1] | blood-brain-barrier / brain penetration [2] | Kp [2] | Aβ40 levels [3] | Aβ42 levels [3] | sAPPα levels in hippocampus (Hip) and entorhinal cortex (ECx) [3] | sAPPα levels secreted by 7W cells [4] | Stability in brain tissue [5] | Binding affinity compared with sulfiram ([1]; inferred from greater effect in X-ray scattering) | Binding to APP (MBP-eAPP230-624) and effect on conformation/dimerization ([1]; listed as disulfiram) | Aβ levels ([3]; 10 mpk) | blood-brain-barrier crossing [6] | sAPPα levels in hippocampus (Hip) and entorhinal cortex (ECx) ([3]; 10 mg/kg) | sAPPα levels in hippocampus (Hip) and entorhinal cortex (ECx) ([3]; listed as nimetazepam, 10 mg/kg) |
| --- | --- | --- | --- | --- | --- | --- | --- | --- | --- | --- | --- | --- | --- | --- | --- | --- | --- |
| CCN(CC)C(=S)SC(=S)N(CC)CC [Sulfiram] | 1.7 | 53 Å | 170 Å | bind to MBP-eAPP230-624 and alter the conformation of the protein |  |  |  |  |  |  |  |  |  |  |  |  |  |
| C=CCc1ccc(O)c(-c2ccc(O)c(CC=C)c2)c1 [Honokiol, 2-(4-hydroxy-3-prop-2-enyl-phenyl)-4-prop-2-enyl-phenol] |  |  |  |  | penetrates the brain well | ~1 | No significant changes | No significant changes | no significant increase |  |  |  |  |  |  |  |  |
| CCN(CC)C(=S)SSC(=S)N(CC)CC [Disulfiram, 1,1′,1″,1′″-[disulfanediylbis(carbonothioylnitrilo)]tetraethane] | 1.5 | 51 Å | 160 Å | can bind to APP and disrupt APP dimerization | low blood-brain-barrier penetration | < 0.1 |  |  | no changes | increase | degrades rapidly | higher binding affinity | bind to MBP-eAPP230-624 and alter the conformation of the protein | no changes |  |  |  |
| CN1C(=O)CN=C(c2ccccc2)c2cc([N+](=O)[O-])ccc21 [Nimetazepam, 2-methyl-9-nitro-6-phenyl-2,5-diazabicyclo [5.4.0]undeca-5,8,10,12-tetraen-3-one] |  |  |  |  |  |  | No significant changes | No significant changes |  |  |  |  |  |  | known to cross the blood-brain-barrier well | significant increase | increase |
